In brackets after ≈: the same amount, converted by molar mass. Where two headings read alike, the source gives them in different places. Non-standard residues stand in square brackets, D forms with d. Residues, ends and D or L forms follow the SMILES beside them. ξ: configuration not given here. ξTrp(6-F) = NC(Cc1c[nH]c2cc(F)ccc12)C(=O)O
Legend:
[1] = system: tested bacteria (ESKAPE pathogens, Listeria monocytogenes, Salmonella enterica); set-up: method as in PMID 32153547; conditions: same bacterial species; cited from earlier work
[2] = system: Salmonella enterica (ATCC 13076); assay type: cell-based
Procedure, shortened: (§1)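 Log-phase bacteria (~10^7) were exposed for three hours to twofold peptide dilutions from 25 to […] in potassium-phosphate buffer at pH 7.4. Aliquots were then plated on LB agar and incubated overnight at 37 °C. The minimal bactericidal concentration was the lowest dose eliminating all viable bacteria.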

[3] = system: Enterococcus faecalis (ATCC 29212); assay type: cell-based
Procedure, shortened: as §1

[4] = system: Escherichia coli (ATCC 8739); assay type: cell-based; conditions: ATCC 8739, 3 h, pH 7.4
Procedure, shortened: as §1

[5] = system: Klebsiella pneumoniae (NCTC 13440); assay type: cell-based; conditions: NCTC 13440, 3 h, pH 7.4
Procedure, shortened: as §1

[6] = system: Listeria monocytogenes (ATCC 19111); assay type: cell-based; conditions: ATCC 19111, 3 h, pH 7.4
Procedure, shortened: as §1

[7] = system: Acinetobacter baumannii (ATCC 17978); assay type: cell-based; conditions: ATCC 17978, 3 h, pH 7.4
Procedure, shortened: as §1

[8] = system: tested bacteria (ESKAPE pathogens, Listeria monocytogenes, Salmonella enterica); assay type: cell-based; conditions: 3 h, pH 7.4
Procedure, shortened: as §1

[9] = system: Pseudomonas aeruginosa (ATCC 27853); assay type: cell-based; conditions: ATCC 27853, 3 h, pH 7.4
Procedure, shortened: as §1

[10] = system: Staphylococcus aureus (HNCMO112011); assay type: cell-based
Procedure, shortened: as §1

S. aureus (ATCC 25923) = assay type: cell-based, Staphylococcus aureus; conditions: ATCC 25923, 3 h, pH 7.4
Text: (§2) The bacterial strains for the antimicrobial assay were obtained from the ATCC (American Type Culture Collection, Manassas, VA, USA) and NCTC (National Collection of Type Cultures, Salisbury, UK). Gram-negative strains were Pseudomonas aeruginosa (ATCC 27853), Escherichia coli (ATCC 8739, ATCC 35218, and ATCC 25922), Salmonella enterica (ATCC 13076), Klebsiella pneumoniae (NCTC 13440), Acinetobacter baumannii (ATCC 17978) and the Gram-positive strains were Enterococcus faecalis (ATCC 29212), Listeria monocytogenes (ATCC 19111), and Staphylococcus aureus (HNCMO112011 and ATCC 25923).
(§3) Determination of antibacterial activity for the peptides was carried out by utilizing a minimum bactericidal concentration (MBC) bioassay. Synthesized peptides were dissolved in sterile water and used from 25 to 0.125 μM in 2-fold dilution series and incubated with ~10^7 log phase bacteria in Potassium-Phosphate Buffer (PPB, pH: 7.4) for three hours as described earlier. After that, 5 μl of each sample was placed on LB agar and the growth of bacteria was monitored after overnight incubation at 37 °C. The lowest concentration of the antimicrobial agents that completely eliminated viable bacteria was considered the minimal bactericidal concentration (MBC).

E. coli (ATCC 35218) = assay type: cell-based, Escherichia coli; conditions: ATCC 35218, 3 h, pH 7.4
Text: as §2, §3

E. coli (ATCC 25922) = assay type: cell-based, Escherichia coli; conditions: ATCC 25922, 3 h, pH 7.4
Text: as §2, §3

Candida species = conditions: cited from earlier work
Text: NCR169, a cationic peptide (net charge at pH7 is 1.91) consisting of 38 amino acids with four cysteine residues, is crucial for bacteroid differentiation, and its absence results in no nitrogen fixation but premature nodule senescence. Two NMR structures of NCR169 produced in Escherichia coli resulting from different disulfide bond patterns have been determined by utilizing the ^1H-^15N heteronuclear single-quantum coherence (HSQC) NMR technique.

Compound | MBCs compared with the NCR169 peptide derivatives [1] | Minimal bactericidal concentration (MBC) S. e. ([2]; ATCC 13076, 3 h, pH 7.4) [µM] | Minimal bactericidal concentration (MBC) E. f. ([3]; ATCC 29212, 3 h, pH 7.4) [µM] | Minimal bactericidal concentration (MBC) E. c. [4] [µM] | Minimal bactericidal concentration (MBC) K. p. [5] [µM] | Minimal bactericidal concentration (MBC) L. m. [6] [µM] | Minimal bactericidal concentration (MBC) A. b. [7] [µM] | MBC against most or all of the tested bacteria [8] [µM] | Minimal bactericidal concentration (MBC) P. a. [9] [µM] | Minimal bactericidal concentration (MBC) S. a. ([10]; HNCMO112011, 3 h, pH 7.4) [µM] | MBC S.a. ATTC 25923 (S. aureus (ATCC 25923)) [µM] | MBC E.c. ATTC 35218 (E. coli (ATCC 35218)) [µM] | MBC E.c. ATTC 25922 (E. coli (ATCC 25922)) [µM] | Minimal bactericidal concentration (MBC) S. e. ([2]; Salmonella enterica ATCC 13076, ~10^7 log phase bacteria, 3 h in PPB pH 7.4, peptide 25 to 0.125 μM 2-fold series, plated on LB agar, overnight 37 °C) | Minimal bactericidal concentration (MBC) E. f. ([3]; Enterococcus faecalis ATCC 29212, ~10^7 log phase bacteria, 3 h in potassium-phosphate buffer (PPB) pH 7.4, peptide 25 to 0.125 μM 2-fold series, 5 μl on LB agar, overnight 37 °C) | Minimal bactericidal concentration (MBC) S. a. ([10]; Staphylococcus aureus HNCMO112011, ~10^7 log phase bacteria, 3 h in PPB pH 7.4, peptide 25 to 0.125 μM 2-fold series, plated on LB agar, overnight 37 °C) | antifungal activity against different Candida species (Candida species)
C[C@H]1COc2c(N3CCN(C)CC3)c(F)cc3c(=O)c(C(=O)O)cn1c23 [levofloxacin] | either similar or 200-fold higher |  |  |  |  |  |  |  |  |  |  |  |  |  |  |  | 
CC[C@H](C)[C@H](NC(=O)[C@H](CCCCN)NC(=O)[C@H](Cc1ccccc1)NC(=O)[C@H](CC(C)C)NC(=O)[C@@H]1CCCN1C(=O)[C@H](CCCCN)NC(=O)[C@H](CCCCN)NC(=O)[C@H](CO)NC(=O)[C@@H](N)CCCCN)C(=O)NC(Cc1c[nH]c2cc(F)ccc12)C(=O)N[C@@H](CCCCN)C(=O)N[C@@H](CO)C(=O)N[C@H](C(=O)N[C@@H](CCC(=O)O)C(=O)N[C@@H](CC(N)=O)C(=O)N[C@H](C(=O)N[C@@H](CO)C(=O)N[C@H](C(=O)N[C@@H](CC(C)C)C(=O)N[C@@H](Cc1c[nH]c2ccccc12)C(=O)N[C@@H](Cc1ccc(O)cc1)C(=O)N[C@@H](CCCCN)C(N)=O)C(C)C)C(C)C)C(C)C (stereo partly shown) [NCR169C17–38C12,17/S-10W^6-F II] (H-KSKKPLFKI[ξTrp(6-F)]KSVENVSVLWYK-NH2; N-terminus assumed) |  | 6.3 (≈ 17.2 µg/mL) | 0.8 (≈ 2.18 µg/mL) | 0.8 (≈ 2.18 µg/mL) | 1.6 (≈ 4.36 µg/mL) | 1.6 (≈ 4.36 µg/mL) | 0.8 (≈ 2.18 µg/mL) | 0.8 to 1.6 | 1.6 (≈ 4.36 µg/mL) | 0.8 (≈ 2.18 µg/mL) | 1.6 (≈ 4.36 µg/mL) | 0.8 (≈ 2.18 µg/mL) | 0.8 (≈ 2.18 µg/mL) |  |  |  | 
CC[C@H](C)[C@H](NC(=O)[C@H](CCCCN)NC(=O)[C@H](Cc1ccccc1)NC(=O)[C@H](CC(C)C)NC(=O)[C@@H]1CCCN1C(=O)[C@H](CCCCN)NC(=O)[C@H](CCCCN)NC(=O)[C@H](CO)NC(=O)[C@@H](N)CCCCN)C(=O)N[C@@H](C)C(=O)N[C@@H](CCCCN)C(=O)N[C@@H](CS)C(=O)N[C@H](C(=O)N[C@@H](CCC(=O)O)C(=O)N[C@@H](CC(N)=O)C(=O)N[C@H](C(=O)N[C@@H](CS)C(=O)N[C@H](C(=O)N[C@@H](CC(C)C)C(=O)N[C@@H](C)C(=O)N[C@@H](Cc1ccc(O)cc1)C(=O)N[C@@H](CCCCN)C(N)=O)C(C)C)C(C)C)C(C)C [NCR169C17–38W10,20/A] (H-KSKKPLFKIAKCVENVCVLAYK-NH2; N-terminus assumed) |  |  |  | 3.1 (≈ 7.78 µg/mL) | 12.5 (≈ 31.4 µg/mL) | 25 (≈ 62.7 µg/mL) | 3.1 (≈ 7.78 µg/mL) |  | 3.1 (≈ 7.78 µg/mL) |  |  |  |  | - (-: inactive up to 25 μM) | - (-: inactive up to 25 μM) | - (-: inactive up to 25 μM) | possess antifungal activity
CC1(C)S[C@@H]2[C@H](NC(=O)C(C(=O)O)c3ccccc3)C(=O)N2[C@H]1C(=O)O (stereo partly shown) [carbenicillin] | 2–4 fold |  |  |  |  |  |  |  |  |  |  |  |  |  |  |  | 
CC[C@H](C)[C@H](NC(=O)[C@H](CCCCN)NC(=O)[C@H](Cc1ccccc1)NC(=O)[C@H](CC(C)C)NC(=O)[C@@H]1CCCN1C(=O)[C@H](CCCCN)NC(=O)[C@H](CCCCN)NC(=O)[C@H](CO)NC(=O)[C@@H](N)CCCCN)C(=O)NC(Cc1c[nH]c2cc(F)ccc12)C(=O)N[C@@H](CCCCN)C(=O)N[C@@H](CO)C(=O)N[C@H](C(=O)N[C@@H](CCC(=O)O)C(=O)N[C@@H](CC(N)=O)C(=O)N[C@H](C(=O)N[C@@H](CO)C(=O)N[C@H](C(=O)N[C@@H](CC(C)C)C(=O)N[C@@H](Cc1c[nH]c2ccccc12)C(=O)N[C@@H](Cc1ccc(O)cc1)C(=O)N[C@@H](CCCCN)C(N)=O)C(C)C)C(C)C)C(C)C (stereo partly shown) [NCR169C17–38C12,17/S-10W^6-F I] (H-KSKKPLFKI[ξTrp(6-F)]KSVENVSVLWYK-NH2; N-terminus assumed) |  | 1.6 (≈ 4.36 µg/mL) | 1.6 (≈ 4.36 µg/mL) | 0.8 (≈ 2.18 µg/mL) | 1.6 (≈ 4.36 µg/mL) | 1.6 (≈ 4.36 µg/mL) | 1.6 (≈ 4.36 µg/mL) | 0.8 to 1.6 | 0.8 (≈ 2.18 µg/mL) | 0.8 (≈ 2.18 µg/mL) | 1.6 (≈ 4.36 µg/mL) | 0.8 (≈ 2.18 µg/mL) | 0.8 (≈ 2.18 µg/mL) |  |  |  | 
CC[C@H](C)[C@H](NC(=O)[C@H](CCCCN)NC(=O)[C@H](Cc1ccccc1)NC(=O)[C@H](CC(C)C)NC(=O)[C@@H]1CCCN1C(=O)[C@H](CCCCN)NC(=O)[C@H](CCCCN)NC(=O)[C@H](CO)NC(=O)[C@@H](N)CCCCN)C(=O)N[C@@H](Cc1c[nH]c2ccccc12)C(=O)N[C@@H](CCCCN)C(=O)N[C@@H](CO)C(=O)N[C@H](C(=O)N[C@@H](CCC(=O)O)C(=O)N[C@@H](CC(N)=O)C(=O)N[C@H](C(=O)N[C@@H](CO)C(=O)N[C@H](C(=O)N[C@@H](CC(C)C)C(=O)N[C@@H](Cc1c[nH]c2ccccc12)C(=O)N[C@@H](Cc1ccc(O)cc1)C(=O)N[C@@H](CCCCN)C(N)=O)C(C)C)C(C)C)C(C)C [NCR169C17–38C12,17/S] (H-KSKKPLFKIWKSVENVSVLWYK-NH2) |  | 1.6 (≈ 4.33 µg/mL) | 3.1 (≈ 8.39 µg/mL) | 1.6 (≈ 4.33 µg/mL) | 3.1 (≈ 8.39 µg/mL) | 3.1 (≈ 8.39 µg/mL) | 1.6 (≈ 4.33 µg/mL) |  | 3.1 (≈ 8.39 µg/mL) | 1.6 (≈ 4.33 µg/mL) | 3.1 (≈ 8.39 µg/mL) | 3.1 (≈ 8.39 µg/mL) | 1.6 (≈ 4.33 µg/mL) |  |  |  | 

Reference: publication PMC9917201, “Enhanced Antibacterial Activity of Substituted Derivatives of NCR169C Peptide” (International Journal of Molecular Sciences, 2023)
